Series [1] is described as follows: Cytotoxicity in uninfected CEM cells (XTT toxicity control). The following applies: human, uninfected CEM cells (T4 lymphocytes). On the procedure:
(§1) The anti-HIV drug testing was performed at NCI based on a protocol described by Weislow et al.^36 All compounds were dissolved in dimethyl sulfoxide and diluted 1:100 in cell culture medium. Exponentially growing T4 lymphocytes (CEM cell line) were added at 5000 cells per well. Frozen virus stock solutions were thawed immediately before use, suspended in complete medium to yield the desired multiplicity of infection (m. o. i.≈0.1), and added to the microtiter wells, resulting in a 1:200 final dilution of the compound. Uninfected cells with the compound served as a toxicity control, and infected and uninfected cells without the compound served as basic controls.
(§2) Cultures were incubated at 37° C. in a 5% CO2 atmosphere for 6 days. The tetrazolium salt, XTT was added to all wells, and cultures were incubated to allow formazan color development by viable cells. Individual wells were analyzed spectrophotometrically to quantitate formazan production, and in addition were viewed microscopically for detection of viable cells and confirmation of protective activity.
(In general: Formazan colour is commonly taken as a measure of viable cells.)

In series [2] the target is T1, purified HIV-1 integrase (HIV-1 IN) (Human immunodeficiency virus type 1 group M subtype B, UniProt P12497). The experiment in a line: biochemical.
Procedure: (§3) To analyze the extent of 3′-processing and strand transfer using 5′-end labeled substrates, AE118 was 5′-end labeled using T4 polynucleotide kinase (Gibco BRL) and γ[^32P]-ATP (Dupont-NEN). To determine the extent of 30mer target strand generation during disintegration, AE157 was 5′-end labeled and annealed to AE156, AE146, and AE117. The kinase was heat-inactivated and AE117 was added to the same final concentration. The mixture was heated at 95° C., allowed to cool slowly to room temperature, and run through a G-25 Sephadex quick spin column (Boehringer Mannheim, Indianapolis, Ind.) to separate annealed double-stranded oligonucleotide from unincorporated label.
(§4) To determine the extent of 3′-processing and strand transfer, integrase was preincubated at a final concentration of 200 nM with the inhibitor in a reaction buffer (50 mM NaCl, 1 mM HEPES, pH 7.5, 50 μM EDTA, 50 μM dithiothreitol, 10% glycerol (w/v), 7.5 mM MnCl2, 0.1 mg/ml bovine serum albumin, 10 mM 2-mercaptoethanol, 10% dimethyl sulfoxide, and 25 mM MOPS, pH 7.2) at 30° C. for 30 minutes. Then, 20 nM of the 5′-end ^32P labeled linear oligonucleotide substrate was added, and incubation was continued for an additional one hour. Reactions were quenched by the addition of an equal volume (16 μ) of loading dye (98% deionized formamide, 10 mM EDTA, 0.025% xylene cyanol and 0.025% bromophenol blue). An aliquot (5 μl) was electrophoresed on a denaturing 20% polyacrylamide gel (0.09 M tris-borate pH 8.3, 2 mM EDTA, 20% acrylamide, 8M urea).
(§5) Gels were dried, exposed in a PhosphorImager cassette, and analyzed using a Molecular Dynamics PhosphorImager (Sunnyvale, Calif.). Percent inhibition was calculated using the following equation: % I=100×[1−(D−C)/(N−C)] where C, N, and D are the fractions of 21-mer substrate converted to 19-mer (3′-processing product) or strand transfer products for DNA alone (C), DNA plus integrase (N), and integrase plus drug (D). All IC50 values were determined by plotting the drug concentration versus percent inhibition, and determining the concentration which produced 50% inhibition.
For series [3], the target named is T1, purified HIV-1 integrase (HIV-1 IN).
Procedure: as §3, §4, §5
Series [4] has as its system T4 lymphocytes (CEM cell line). The experiment in a line: Cytotoxicity in uninfected CEM cells (XTT toxicity control). The following applies: read-out: Cell data (μM) CC50: 50% cytotoxic concentration; uninfected CEM cells, 6 days, XTT. On the procedure:
as §1, §2

The subject of a further series is HIV-1 infected CEM cells. The experiment in a line: Anti-HIV assay in cultured CEM cells (NCI XTT protocol). It is filed as cell-based. As to the method: as §1, §2
The next series deals with T2, HIV-1 IN (Human immunodeficiency virus type 1 group M subtype B, UniProt P12497).
T2 construct: An expression system for the wild-type integrase and the IN^50–212 (F185K) were obtained from the Laboratory of Molecular Biology, NIDDK; made in house
The experiment in a line: HIV-1 integrase inhibition with Mg+2 as cofactor (gel assay). It is filed as biochemical. The following applies: compared with Mn+2, 1000, 333, 111, 37 μM. On the procedure:
FIGS. 2 and 3 show concentration dependent inhibition of HIV-1 IN by thiazolothiazepines 1, 19, and 20 using Mn^+2 (FIG. 2) and Mg^+2 (FIG. 3) as a cofactor. Lane 1, DNA alone, lanes 2 and 15 DNA and integrase, lanes 3–6, 7–10, 11–14 DNA, integrase, and compounds 1, 19, and 20 at 1000, 333, 111, and 37 μM, respectively. See Table 1 for compound identifiers 1, 19, 20.
A 21-mer oligonucleotide corresponding to the last 21 bases on the HIV-1 viral DNA in the U5 region of long terminal repeat (LTR) was radiolabeled with ^32P. This is shown in the FIGS. 2 and 3 as a band corresponding to DNA alone. Integrase will cleave the last two bases of this DNA in the presence of Mn^+2 or Mg^+2 to give a 19-mer DNA substrate (lane 2) which runs faster on the gel and is indicated as 19-mer on the Figures. When an inhibitor is added this process is blocked, therefore the original 21-mer DNA would not be cut. When an inhibitor is added at various concentrations, percent inhibition at every concentration will be calculated by quantification of the intensity of each band using an Imagequant program.
The gels are run using polyacrylamide according to the standard procedures. Upon completion of electrophoresis run, the gels are dried and exposed to a phosphorimager cassette. The cassettes are analyzed by the phosphorimager, and the bands are shown on a computer screen. The intensity of each band is quantitated, plotted against concentrations of drugs, and the IC50 values are calculated from the graphs.

“And” between values parts separate entries of the source, which are not always exact repeats. Equal values may be shown once. Read-outs that look alike come from different tables or passages of the source.

Data on 29 compounds can be found in US7015212B1, “Thiazepine inhibitors of HIV-1 integrase” (The United States of America as represented by the …, priority 1999, dated 2006).
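Wherever IC50 is given: integrase at 200 nM exposed to inhibitor 30 min at 30 °C, then 1 h with 20 nM 5′-32P-labelled 21-mer DNA, 3′-processing or strand transfer products quantified on denaturing gels versus no-drug enzyme.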

For orientation: IC50 means the concentration that inhibits the measured activity by half. Higher therefore signals lower potency. `COc1cc2c(cc1OC)C(=O)N1CSCC1C(=O)S2` (stereo not drawn) [Compound 11]: the CC50 at 6 days in series [1] was more than 50 µM. Moreover, the IC50 in series [2] was 330 µM and 670 µM and 630 µM. Consider `O=C1Sc2ccccc2Cn2cccc21` [Compound 28], for which the IC50 in series [3] is 590 µM and 300 µM. In addition, the CC50 in series [4] is more than 200 µM. The term melting point denotes the temperature, or range, at which the solid turns liquid. The compound `O=C1Sc2ccc(Br)cc2C(=O)N2CCSC12` (racemic) [Compound 3, (±)-7-Bromo-2,3-dihydro-5H-thiazolo[2,3-c][1,4]benzothiazepine-5,11 (11aH)-dione] registered a melting point of 219 to 220 °C.

Take `O=C1Sc2ccccc2C(=O)N2CCSC12` (stereo not drawn) [Compound 1]: the “therapeutic index (TI=CC50/EC50)” value in the series with HIV-1 infected CEM cells is more than 1.8. In series [1], this compound registered a CC50 at 6 days of more than 200 µM. Besides, on HIV-1 IN, the “activity against IN in the presence of Mg+2” value (“activity” for short) is reported as “active in the presence of Mg^+2 within the same concentration range as in Mn^+2”. Further, in series [2], the IC50 is 110 µM and 146 µM. `Cc1ccc2c(c1)C(=O)N1CSCC1C(=O)S2` (racemic) [Compound 8, (±)-1,11a-Dihydro-7-methyl-3H,5H,11H-thiazolo[4,3-c][1,4]benzothiazepine-5,11-dione]: the CC50 in series [4] was 35 µM. As for `O=C1Sc2cc3ccccc3cc2C(=O)N2CCSC12` (racemic) [Compound 19, (±)-2,3-Dihydro-5H-naphto[2,3-f]thiazolo[2,3-c][1,4]thiazepine-5,13(13aH)-dione], in the series on HIV-1 infected CEM cells, the “therapeutic index (TI=CC50/EC50)” value is reported as more than 5. The compound also registered a CC50 at 6 days in series [1] of more than 316 µM. Also, the “activity” value on HIV-1 IN is given as “active in the presence of Mg^+2 within the same concentration range as in Mn^+2”. The compound further gave a 50% inhibitory concentration (IC50) in series [2] of 47 ± 6 µM. In the case of `O=C1Sc2ccc(Cl)cc2C(=O)N2CCSC12` (racemic) [Compound 2, (±)-7-Chloro-2,3-dihydro-5H-thiazolo[2,3-c][1,4]benzothiazepine-5,11 (11aH)-dione], the CC50 in series [4] is more than 50 µM. In series [2], `CCOC(=O)C1Sc2ccccc2C(=O)n2cccc21` (stereo not drawn) [Compound 29] showed an IC50 of more than 1000 µM. Compound `O=C1Sc2ccc(Br)cc2C(=O)N2CSCC12` (racemic) [Compound 7, (±)-7-Bromo-1,11a-dihydro-3H,5H,11H-thiazolo[4,3-c][1,4]benzothiazepine-5,11-dione] showed a melting point of 213 to 214 °C. Besides, the CC50 in series [4] is more than 200 µM. Compound `O=C1Sc2cc([N+](=O)[O-])ccc2C(=O)N2CSCC12` (racemic) [Compound 9, (±)-1,11a-Dihydro-8-nitro-3H,5H,11H-thiazolo[4,3-c][1,4]benzothiazepine-5,11-dione] displayed a melting point of 231 to 232 °C. In series [4], the CC50 is more than 50 µM. `COc1ccc2c(c1)C(=O)N1C[S+]([O-])CC1C(=O)S2` (racemic) [Compound 18, (±)-cis-1,11a-Dihydro-7-methoxy-3H,5H,11H-thiazolo[4,3-c][1,4]benzothiazepine-5,11-dione 2-Oxide] displayed a melting point of 172 to 174 °C. Further, in series [2], the IC50 is 142 µM and 84.5 µM. On to `CN1CCN([C@@H]2Sc3ccccc3C(=O)N3CCC[C@@H]23)CC1` (racemic) [Compound 27, (±)-cis-2,3,11,11a-Tetrahydro-11-(4-methylpiperazin-1-yl)-1H,5H-pyrrolo[2,1-c][1,4]benzothiazepin-5-one], for which the CC50 in series [4] was more than 125 µM.

Regarding `COC1Sc2ccccc2C(=O)N2CCCC12` (stereo not drawn) [Compound 22], the CC50 in series [4] is more than 200 µM. In series [1], `COc1cc2c(cc1OC)C(=O)N1CCCC1CS2` (stereo not drawn) [Compound 24] had a CC50 at 6 days of more than 200 µM. `Cc1ccc2c(c1)C(=O)N1CC[S+]([O-])C1C(=O)S2` (racemic) [Compound 15, (±)-cis-2,3-Dihydro-7-methyl-5H-thiazolo[2,3-c][1,4]benzothiazepine-5,11 (11aH)-dione 1-Oxide] showed a melting point of 211 to 212 °C. In addition, the CC50 at 6 days in series [1] was more than 100 µM. The same compound registered an IC50 in series [2] of 590 ± 350 µM. The compound `O=C1c2ccccc2SC(O)(c2ccccc2)C2CCCN12` (racemic) [Compound 26, (±)-2,3,11,11a-Tetrahydro-11-hydroxy-11-phenyl-1H,5H-pyrrolo [2,1-c][1,4]benzothiazepin-5-one] had a melting point of 137 to 141 °C.

Consider `O=C1Sc2ccc(Cl)cc2C(=O)N2CSCC12` (racemic) [Compound 6, (±)-7-Chloro-1,11a-dihydro-3H,5H,11H-thiazolo[4,3-c][1,4]benzothiazepine-5,11-dione], for which the melting point was 204 to 205 °C. In addition, the CC50 in series [4] is more than 100 µM. Regarding `COc1cc2c(cc1OC)C(=O)N1CCCC1C(=O)S2` (stereo not drawn) [Compound 13], in series [1], the CC50 at 6 days was more than 200 µM.

Turning to `CC(=O)OC1Sc2ccccc2C(=O)N2CCCC12` (stereo not drawn) [Compound 21], in series [1], the CC50 at 6 days is more than 200 µM. Regarding `O=C1Sc2ccccc2C(=O)N2C[S+]([O-])CC12` (racemic) [Compound 16, (±)-cis-1,11a-Dihydro-3H,5H,11H-thiazolo[4,3-c][1,4]benzothiazepine-5,11-dione 2-oxide], the IC50 in series [2] is 215 µM and 222 µM and 200 µM and 185 µM.

With `CN(C)Cc1ccc2n1C(=O)c1ccccc1SC2c1ccc(F)cc1` (stereo not drawn) [Compound 30], in series [2], the IC50 is more than 1000 µM. The compound `O=C1Sc2ccccc2C(=O)N2CSCC12` (racemic) [Compound 5] yielded a CC50 at 6 days in series [1] of more than 200 µM. In addition, the IC50 in series [2] was 227 µM and 208 µM. In the case of `CN1CCN(Cc2ccc3n2Cc2ccccc2SC3c2ccccc2)CC1` (racemic) [Compound 31, (±)-3-[(4-Methylpiperazin-1-yl)methyl]-11-phenyl-5H,11H-pyrrolo [2,1-c][1,4]benzothiazepine], the melting point lay in the range of 161 to 162 °C. Consider `O=C1Sc2ccccc2C(=O)N2CCCCC12` (stereo not drawn) [Compound 14], for which the CC50 at 6 days in series [1] was more than 200 µM. The IC50 in series [2] was 343 µM and 406 µM and 495 µM. In the case of `Cc1ccc2c(c1)C(=O)N1CCSC1C(=O)S2` (racemic) [Compound 4, (±)-2,3-Dihydro-7-methyl-5H-thiazolo[2,3-c][1,4]benzothiazepine-5,11 (11aH)-dione], the IC50 in series [2] was 55 µM and 64 µM. Consider `O=C1c2ccccc2SC(O)C2CCCN12` (stereo not drawn) [Compound 25], for which the CC50 at 6 days in series [1] is more than 200 µM. Regarding `O=C1Sc2ccc(Cl)cc2C(=O)N2C[S+]([O-])CC12` (racemic) [Compound 17, (±)-cis-7-Chloro-1,11a-dihydro-3H,5H,11H-thiazolo[4,3-c][1,4]benzothiazepine-5,11-dione 2-Oxide], the melting point is 213 to 215 °C. The IC50 in series [2] was 280 µM and 200 µM and 260 µM and 215 µM.

Turning to `O=C1Sc2cc3ccccc3cc2C(=O)N2CSCC12` (racemic) [Compound 20, (±)-1,13a-Dihydro-3H,5H,11H-naphto[2,3-f]thiazolo[4,3-c][1,4]thiazepine-5,13-dione], the CC50 at 6 days in series [1] was more than 316 µM. Besides, the “activity” value on HIV-1 IN was “active in the presence of Mg^+2 within the same concentration range as in Mn^+2”. Besides, the IC50 in series [2] was 92 µM and 100 µM. With `COc1ccc2c(c1)C(=O)N1CSCC1C(=O)S2` (racemic) [Compound 10, (±)-1,11a-dihydro-7-methoxy-3H,5H, 11H-thiazolo[4,3-c][1,4]benzothiazepine-5,11-dione], the CC50 in series [4] is more than 200 µM.
